“Also recorded” adds a separate entry of the source.

The results in this text go back to paper PMC3715890, “A Cyclic Peptide Inhibitor of HIF-1 Heterodimerization That Inhibits Hypoxia Signaling in Cancer Cells” (Journal of the American Chemical Society, 2013).

The target of assay [1] is T1, His-HIF-1α1–350 with GST-HIF-1β1–474 (Homo sapiens, UniProt Q16665).
T1 construct: heterodimerization of His-HIF-1α1–350 with GST-HIF-1β1–474 analyzed by ELISA; made in house; host or cells: E. coli BL21(DE3)
Put plainly: ELISA of HIF-1 dimerization. It is filed as biochemical. Particulars: pH 7.5, 30 min preincubation, room temperature. From the text: We next probed the effect of cyclo-CLLFVY on the interaction of HIF-1α with HIF-1β in vitro. […] Unfortunately, the positively charged Tat-tag of P1 is incompatible with EMSA (interferes with the bandshift of DNA). […] To determine the HIF-1-specificity of cyclo-CLLFVY, we assessed its ability to disrupt HIF-2 dimerization by ELISA. Recombinant His-HIF-2α1–351 was produced and purified, and shown to form functional heterodimers with GST-HIF-1β1–474 by EMSA (Figure S5B).
HIF-1β1-474, *please note that isoform 3 of HIF-1β was used). The standard protocol for protein expression was followed. Briefly, a 1 % culture in LB was incubated at 37 °C with shaking until OD600 of 0.6 was reached. 0.1 mM IPTG was added and the liquid culture incubated with shaking at 18 °C overnight. Cell pellets were suspended in MHW buffer9 (approximately 4 ml buffer per 1 g cell pellet). Lysozyme (100 µg/ml) was added to the lysate and the solution was incubated with shaking for 20 min at 5 °C. […]
glycerol) was added to individual wells of a Pierce Ni2+-coated 96-well plate (Thermo Scientific, catalogue no. […] The stated quantity of inhibitor (P1 or P2) was added as a solution in 100 µL of buffer to the desired wells, and the plate incubated at room temperature for 30 minutes. […]

Assay [2] deals with VEGF mRNA in hypoxic U2OS cells. Put plainly: VEGF mRNA qPCR, U2OS. It is filed as cell-based, human. Particulars: hypoxia 16 h, 100 μM. The method, then:
Cells were treated with the stated concentrations of inhibitor (P1, P2, or P3) and incubated in normoxia for 4 h, followed by incubation in a hypoxic environment. All manipulation of cell pellets (e.g., lysis, mRNA, and protein extraction) was conducted in a hypoxic environment.
Total RNA was extracted from MCF-7 and U2OS cells using RNeasy Mini Kit (74104, QIAGEN) and quantified using a Nanodrop ND-1000 spectrophotometer. Complementary DNA was synthesized in a 20 μL reaction containing 1 μg of total RNA, using qScript cDNA SuperMix (95048-100, Quanta Biosciences) according to the manufacturer’s instructions. Quantitative real-time PCRs were performed using Universal Taqman PCR master mix (Applied Biosystems) >and the Taqman gene expression assay of interest (Applied Biosystems) on an ABI StepOnePlus Real-Time PCR system (Applied Biosystems). Expression assays used in this study were HIF-1α (00936376_m1), VEGF-A (Hs00173626_m1), CAIX (Hs00154208_m1), LOX (Hs00942480_m1), HIF2α (Hs01026149_m1), CITED2 (Hs01897804_s1), and 18S (Hs99999901_m1). All expression values were normalized using expression of 18S.

Consider “Tat-cyclo-CRLMVL (head to tail) [P2, cyclo-CRLMVL tagged with Tat peptide via a disulfide bond; used as negative control]”, for which the “effect on HIF-1 dimerization” value in assay [1] is “does not disrupt HIF-1 dimerization; also recorded: had no effect on HIF-1 dimerization”. The “VEGF mRNA” value in assay [2] is on record as “had no effect”.
